{
  "source": "patent US20260055126A1",
  "about": "“SMALL MOLECULE COMPOUNDS WITH PHOSPHORYLATED ARYL STRUCTURES AND USE THEREOF” (HANGZHOU PHECDAMED CO., LTD., priority 2022, published 2026)",
  "key": {"[1]": {"tested_on": "Caco-2 cells", "experiment": "Permeability test on Caco2 cells", "type": "in vitro ADME", "conditions": "for Papp average value: n = 2; for Papp / Receiving chamber concentration Area ratio/OD: single replicate", "procedure": "After resuscitation, the Caco-2 cells are transferred to a conventional culture dish and cultured in a high-glucose DMEM medium (containing 10% FBS) at 37° C. and 5% CO2 in an incubator. When the cells cover 80% to 95% of the bottom of the dish, they are digested with trypsin containing 0.25% EDTA to disperse them into a single cell suspension, and the cell concentration is determined using a cell counter, after that, the concentration of the cell suspension is adjusted to 2 to 2.5×10^5/mL with fresh culture medium and inoculated into a Transwell polycarbonate membrane 12-well plate, the fresh culture medium is replaced every two days in the first two weeks and once a day in the last week, the culture is continued for 19 to 21 days to obtain a fully differentiated single cell layer."}, "[2]": {"experiment": "SD rat plasma pharmacokinetic test", "type": "in vivo", "procedure": "Animal information: SD rats, male, n=6, about 180-200 g, purchased from Sibeifu (Beijing) Biotechnology Co., Ltd.\nAnimal dietary status: Animals are fasted for at least 12 h before administration and resumed eating 4h after administration; during the experiment, animals are allowed to drink water freely.\nAdministration: administering the compound to experimental animals (n=3) by intragastric administration at a dose of 10 mg/kg, and the solvent is 0.5% CMC-Na; administering the compound to experimental animals (n=3) by intravenous injection at a dose of 1 mg/kg, and the solvent is DMSO:PEG400:normal saline=5:30:65, preparing immediately before use.\nSample collection: collecting about 0.25 mL of whole blood at each time point, anticoagulating with EDTA-K2, and placing on ice immediately after collection, within 0.5 h after collection, centrifuging at 4° C., 2000 g for 5 min, and sucking up all plasma and placing in labeled EP tubes, placing the EP tubes on ice, and freezing the plasma samples in a −60˜−90° C. refrigerator within 0.5 h.\nSample processing: centrifuging whole blood samples at 4° C., 2000 g for 5 min within 30 min after collection to separate plasma, and collecting the upper plasma sample into a sample tube.\nSample testing and data processing: Using LC-MS/MS method to detect the concentration of the original drug in plasma samples at each time point. WinNonlin is used for fitting and pharmacokinetic parameter calculation."}, "[3]": {"biological_target": "recombinant TEAD4 protein (217-434, Uniprot ID: Q15561) (Homo sapiens (Human), UniProt Q15561)", "sequence (Q15561 217-434)": "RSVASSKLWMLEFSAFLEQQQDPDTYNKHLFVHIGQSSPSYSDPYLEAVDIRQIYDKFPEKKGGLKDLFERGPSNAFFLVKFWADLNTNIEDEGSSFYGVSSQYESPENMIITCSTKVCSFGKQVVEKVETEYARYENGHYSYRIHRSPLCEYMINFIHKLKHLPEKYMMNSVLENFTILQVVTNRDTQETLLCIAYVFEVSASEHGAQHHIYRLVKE", "experiment": "Thermal shift assay (protein melting point curve), TEAD4", "type": "binding", "conditions": "10 μM TEAD protein, 50 μM test compound"}, "[4]": {"biological_target": "recombinant TEAD2 protein (218-447, Uniprot ID: Q15562) (Homo sapiens (Human), UniProt Q15562)", "sequence (Q15562 218-447)": "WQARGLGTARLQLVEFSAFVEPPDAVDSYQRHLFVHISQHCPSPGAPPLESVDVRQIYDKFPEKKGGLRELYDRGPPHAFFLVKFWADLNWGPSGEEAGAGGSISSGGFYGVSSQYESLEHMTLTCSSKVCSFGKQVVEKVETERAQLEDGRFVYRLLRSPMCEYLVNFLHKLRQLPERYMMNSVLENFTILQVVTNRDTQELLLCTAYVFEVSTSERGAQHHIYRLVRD", "experiment": "Thermal shift assay (protein melting point curve), TEAD2", "type": "binding", "conditions": "10 μM TEAD protein, 50 μM test compound"}},
  "note": "Several values for one entry are separate records, joined by “and”; a condition that tells them apart may be missing. Equal entries are not always repeated.",
  "data": [
    {"smiles": "CP(C)(=O)c1ccc(NCc2ccc(C(F)(F)F)cc2)c(-c2nccc(OC3COC3)n2)c1", "note": "[Compound 17]", "values": [
      {"measurement": "Papp average value", "setting": "[1]; AP→BL", "result": "8.96 10^−6 cm/s"},
      {"measurement": "Papp", "setting": "[1]; AP→BL", "result": "8.81 10^−6 cm/s and 9.12 10^−6 cm/s"},
      {"measurement": "Receiving chamber concentration Area ratio/OD", "setting": "[1]; AP→BL", "result": "0.114 and 0.118"},
      {"measurement": "Papp average value", "setting": "[1]; BL→AP", "result": "18.1 10^−6 cm/s"},
      {"measurement": "Papp", "setting": "[1]; BL→AP", "result": "18.0 10^−6 cm/s and 18.2 10^−6 cm/s"},
      {"measurement": "Receiving chamber concentration Area ratio/OD", "setting": "[1]; BL→AP", "result": "0.699 and 0.708"},
      {"measurement": "Penetration Type", "setting": "[1]; Caco2 cell model", "result": "High"},
      {"measurement": "intestinal permeability", "setting": "[1]; Caco2 cell model", "result": "high intestinal hypertonicity"},
      {"measurement": "pharmacokinetic properties in SD rats", "setting": "[2]", "result": "good pharmacokinetic properties"},
      {"measurement": "AUC0-t", "setting": "[2]; SD rats, IG 10 mg/kg", "result": 4440, "unit": "ng·h/mL"},
      {"measurement": "AUC0-∞", "setting": "[2]; SD rats, IG 10 mg/kg", "result": 4510, "unit": "ng·h/mL"},
      {"measurement": "Cmax", "setting": "[2]; SD rats, IG 10 mg/kg", "result": 1480, "unit": "ng/mL"},
      {"measurement": "MRT0-t", "setting": "[2]; SD rats, IG 10 mg/kg", "result": 2.25, "unit": "h"},
      {"measurement": "MRT0-∞", "setting": "[2]; SD rats, IG 10 mg/kg", "result": 2.37, "unit": "h"},
      {"measurement": "Tmax", "setting": "[2]; SD rats, IG 10 mg/kg", "result": "0.50 (0.5, 0.5) h"},
      {"measurement": "t1/2", "setting": "[2]; SD rats, IG 10 mg/kg", "result": 1.26, "unit": "h"},
      {"measurement": "Absolute bioavailability (%)", "setting": "[2]; SD rats, IG 10 mg/kg vs IV 1 mg/kg", "result": 84.9, "unit": "%"},
      {"measurement": "AUC0-t", "setting": "[2]; SD rats, IV 1 mg/kg", "result": 506, "unit": "ng·h/mL"},
      {"measurement": "AUC0-∞", "setting": "[2]; SD rats, IV 1 mg/kg", "result": 523, "unit": "ng·h/mL"},
      {"measurement": "CL", "setting": "[2]; SD rats, IV 1 mg/kg", "result": 32.83, "unit": "mL/min/kg"},
      {"measurement": "Cmax", "setting": "[2]; SD rats, IV 1 mg/kg", "result": 333, "unit": "ng/mL"},
      {"measurement": "MRT0-t", "setting": "[2]; SD rats, IV 1 mg/kg", "result": 1.52, "unit": "h"},
      {"measurement": "MRT0-∞", "setting": "[2]; SD rats, IV 1 mg/kg", "result": 1.73, "unit": "h"},
      {"measurement": "Vss", "setting": "[2]; SD rats, IV 1 mg/kg", "result": 3.36, "unit": "L/kg"},
      {"measurement": "t1/2", "setting": "[2]; SD rats, IV 1 mg/kg", "result": 1.18, "unit": "h"},
      {"measurement": "Δ T m (TEAD4)", "setting": "[3]", "result": "++"},
      {"measurement": "Δ T m (TEAD2)", "setting": "[4]", "result": "++"}
    ]}
  ]
}
